Values joined by “and” are separate entries in the source; they are usually repeats but may differ in a detail not shown here. Identical values can stand only once.
Legend:
[1] = test system: Crocker mice sarcoma (Sa-180); experiment: Growth inhibition of the Crocker mice sarcoma (Sa-180); type: in vivo; settings: dosage of 0.2 mg/kg, intraperitoneally, dihydrochloride
Method: The growth inhibition of the Crocker mice sarcoma (Sa-180).
For this investigation, mice of about three months in age and a weight of about 25 g were used. These animals were inoculated with a section of the neoplasm (Sa-180) and were divided into groups: the first of control - 10 mice; and two to four groups of "under treatment" ones (seven mice each).
The compounds investigated were administered intraperitoneally in appropriate doses, after previous determination of the maximum tolerance dosage.
A criterion of the evaluation the anti-neoplastic activity of the compounds tested was accepted wherein the percent difference between mean weights of the nodules (tumours) of control mice and of those which received the preparations, taking into account the toxic effects.

[2] = Acute toxicity, LD50, mouse; settings: in vivo, observations over 72 hours
Method: (§1) The biological activity analysis was supported by detailed pharmacologic examinations. After observations made over 72 hours, it was determined that the LD50 -value for the preparation C-846 for mice and rats (in mg/kg), was as follows: […]

[3] = Acute toxicity, LD50, rat; settings: in vivo, observations over 72 hours
Method: as §1

[4] = Maximum tolerance dosage (MTD), mouse; settings: in vivo
Method: (§2) Moreover, the maximum tolerance dosage (MTD) for mice and rats was determined (in mg/kg), as follows: […]

[5] = Maximum tolerance dosage (MTD), rat; settings: in vivo
Method: as §2

rabbits and cats = experiment: Arterial blood pressure, respiratory function, electrocardiogram and lethal dosage in rabbits and cats; type: in vivo
[6] = test system: isolated small intestine of guinea-pig; experiment: Spasmolytic activity, isolated small intestine of guinea-pig; settings: concentration 5 × 10^-6
[7] = test system: isolated small intestine of rat; experiment: Spasmolytic activity, isolated small intestine of rat; settings: concentration of 10^-5
[8] = test system: small intestine; muscular coat of the urinary bladder; experiment: Spasmolytic activity in vivo, small intestine and urinary bladder of rabbit and cat; settings: intravenous, dosages of more than 5 mg/kg
central nervous system = type: in vivo, mice
rats and rabbits = experiment: Prolonged (three-month) toxicity investigations on rats and rabbits; type: in vivo
Method: Prolonged investigations were carried out on rats and rabbits during the whole three-month-exposition period of time, introducing dosages corresponding to 1/150, 1/100 and 1/50 of the LD50 -value. This last dosage was a dosage which was maximally tolerated during this period of time.

rats = experiment: Reproduction and offspring development in rats; type: in vivo
Local irritating action = type: in vivo
[9] = large dosages, more than 8 mg/kg
[10] = rabbits and cats, intraperitoneal, dosages up to 10 mg/kg

With `CCNCCCNc1c2ccccc2nc2cccc([N+](=O)[O-])c12.Cl.Cl` [Example C-845, 1-nitro-9-ethylaminopropylaminoacridine dihydrochloride] as the compound, how does the “inhibition values of Crocker's sarcoma (Sa-180)” value [1] read?
The value was 48% and 49% and 57%.

For `CC(C)NCCCNc1c2ccccc2nc2cccc([N+](=O)[O-])c12.Cl.Cl` [Example C-846, 1-nitro-9-isopropylaminopropylaminoacridine dihydrochloride], which LD50 at 72 h ([2]; iv) is on record?
Its LD50 at 72 h is 2.2 ± 0.1 mg/kg.

And the LD50 at 72 h ([2]; po)?
Its LD50 at 72 h is 126 ± 24.7 mg/kg.

What about the LD50 at 72 h ([3]; iv) of the same compound?
Its LD50 at 72 h is 0.95 ± 0.1 mg/kg.

And the LD50 at 72 h ([3]; po)?
The LD50 at 72 h was 127 ± 17.8 mg/kg.

What about the MTD ([4]; iv) of the same compound?
Its MTD is 1.85 mg/kg.

What about the MTD ([4]; po) of the same compound?
The MTD was 27.2 mg/kg.

And the MTD ([5]; iv)?
Its MTD is 0.63 mg/kg.

And the MTD ([5]; po)?
The MTD was 75 mg/kg.

And the “effect on blood pressure” value (rabbits and cats; intravenous injection, 2 mg/kg)?
Its value is “insignificant and transient hypotony”.

What about the effect on respiration (rabbits and cats; intravenous injection, 2 mg/kg) of the same compound?
The effect on respiration was “instinctive acceleration of deepened respiration”.

What about the PQ segment (rabbits and cats; [9]) of the same compound?
Its PQ segment is “prolongation of the PQ segment”.

And the QRS-Complex (rabbits and cats; [9])?
Its QRS-Complex is “dilation of the QRS-Complex”.

And the changes in electrocardiograms (rabbits and cats; [9])?
The changes in electrocardiograms was “transient changes in electrocardiograms were noted, due to the disturbances of the atrio-ventricular and intra-ventricular conductivity”.

What about the “effects of the lethal dosages” value (rabbits and cats; rabbits and cats, about 15 mg/kg, i.v.) of the same compound?
Its value is “permanent hypotony and respiration disturbances or even apnoea”.

And the lethal dosages (rabbits and cats; rabbits and cats, i.v.)?
Its lethal dosages is ~15 mg/kg.

And the “effect on the arterial blood pressure” value (rabbits and cats; [10])?
Its value is “did not have any effect”.

What about the “effect on the respiratory function” value (rabbits and cats; [10]) of the same compound?
The value was “did not have any effect”.

And the “muscular tension and spontaneous intestine peristalsis (spasmolytic activity)” value [6]?
Its value is “a decrease was noted in the muscular tension and an atrophy of spontaneous intestine peristalsis”.

What about the “muscular tension and spontaneous intestine peristalsis (spasmolytic activity)” value [7] of the same compound?
Its value is “a decrease was noted in the muscular tension and an atrophy of spontaneous intestine peristalsis”.

And the “spasmolytic activity regarding the small intestine and the muscular coat of the urinary bladder” value [8]?
The value was “such an activity”.

And the “influence on spontaneous and forced motor activity” value (central nervous system; mice, dosages up to 1/10 LD50)?
The value was “did not influence in such dosages in essential manner”.

What about the “influence on the action of hypnotic agents (luminal, chloral hydrate) and of convulsant agents (Cardiazol, strychnine)” value (central nervous system; mice, dosages up to 1/10 LD50) of the same compound?
The value was “did not influence”.

What about the “activity on the central nervous system” value (central nervous system; mouse, in vivo) of the same compound?
Its value is “did not demonstrate any evident and oriented activity”.

And the blood coagulation time (rats and rabbits; in the third month)?
Its blood coagulation time is “a certain prolongation was noted”.

What about the “histology, germinal epithelium / testicles” value (rats and rabbits; in vivo) of the same compound?
Its value is “some degenerative lesions appeared in a range of the germinal epithelium, in the range of testicles”.

What about the “histology, intestinal epithelium and glandular texture” value (rats and rabbits; in vivo) of the same compound?
The value was “a desquamation (desfoliation) of the intestinal epithelium and an atrophy of the glandular texture”.

And the “histology, lymphatic system” value (rats and rabbits; in vivo)?
Its value is “a decrease in the amount of the reproductive centers was noted, as well as a decrease in the amount of the small lymphocytes”.

What about the “histology, other internal organs” value (rats and rabbits; in vivo) of the same compound?
Its value is “did not show any other microscopic changes”.

And the “histology, spermatogenesis” value (rats and rabbits; in vivo)?
The value was “some disturbances in spermatogenesis, a decrease in the amount of sperm cells”.

What about the “activity of the acid phosphatase” value (rats and rabbits; only after the highest dosages, prolonged time of exposition) of the same compound?
The value was “increase in activity of the acid phosphatase was observed”.

What about the “hepatic functional tests (AlAt, AspAt, acid and alkaline phosphatases, thymol turbidity test)” value (rats and rabbits; rats and rabbits, three months) of the same compound?
The value was “did not show an occurrence of any pathologic lesions”.

What about the “influence on the peripheral blood or medular hematopoietic system” value (rats and rabbits; rats and rabbits, three months) of the same compound?
The value was “could not be proved, that the preparation had influence”.

And the “renal tests (creatinine clearance, glomerular filterability)” value (rats and rabbits; rats and rabbits, three months)?
The value was “did not show any deviation from the norm”.

And the “dosage maximally tolerated during three months” value (rats and rabbits; rats and rabbits, three-month exposition)?
The value was 1/50.

What about the “amount of infant animals in the brood” value (rats) of the same compound?
Its value is “decreased”.

What about the “capacity to conceive or induce conception / ability of females to become pregnant” value (rats) of the same compound?
The value was “did not inhibit”.

What about the macroscopic malformations (rats) of the same compound?
Its macroscopic malformations is “no macroscopic malformations were observed”.

And the “ontogenetic development of infant animals” value (rats)?
Its value is “retarded”.

What about the local irritating action (Local irritating action; concentrations of from 0.05 to 1.0%) of the same compound?
Its local irritating action is “exerted a local irritating action”.

What about the “local changes caused by the intravenous injection” value (Local irritating action; phosphate buffer solution at pH 7 as solvent) of the same compound?
Its value is “could be eliminated”.
